Assays:
α-synuclein (αSyn) [1] = biological target: T1, α-synuclein (αSyn) (Homo sapiens, UniProt P37840); assay: split Gaussia luciferase oligomerization assay; also FRET oligomerization, HT-CM-SPR hit (tethered); type: biochemical; parameters: gene SNCA; αSyn-GLuc1 and αSyn-GLuc2 (split Gaussia luciferase fragment fused to the C-terminus of αSyn); monomeric αSyn in SPR
α-synuclein (αSyn) [2] = biological target: T1, α-synuclein (αSyn); assay: split Gaussia luciferase oligomerization assay; also FRET oligomerization, ThT fibrillization, HT-CM-SPR hit (tethered); type: biochemical; parameters: gene SNCA; αSyn-GLuc1 and αSyn-GLuc2 (split Gaussia luciferase fragment fused to the C-terminus of αSyn); monomeric αSyn in SPR and fibrillization

IC50 (α-synuclein (αSyn) [1])	IC50 (α-synuclein (αSyn) [2])	SMILES
104 µM		Cc1c(-c2csc(NC(C(N)=O)C3CCNCC3)n2)sc2ccccc12 (stereo not drawn) [compound 573437, 573437]
	10.5 µM	CNC(=O)c1cc(O)ccc1N [compound 576755, 576755]
	290 µM	CNC(=O)CN(C(=O)Cc1noc2ccccc12)C(C)c1ccc(Cl)cc1 (stereo not drawn) [compound 582032, 582032]
